Laboratory results from patent US20240408119A1, “DELIVERY OF THERAPEUTIC ALKALOID COMPOUNDS” (priority 2022, published 2024).
Where two headings read alike, the source gives them in different places.

Legend:
[1] = fermentation, exposure to light, exposure to heat, aqueous medium; cited from earlier work
[2] = Metabolic Stability in Human Hepatocytes; format: in vitro ADME; conditions: cryopreserved human hepatocytes, 37° C.
Procedure: A 2.5 uL aliquot of 100 μM test compound was incubated with 247.5 uL of cryopreserved hepatocytes suspended in serum-free incubation medium at 5×10^5 viable cells/mL. The mixture was incubated at 37° C. and shaken at 500 rpm for the designated time points (0.5, 15, 30, 60, 90, or 120 min). At each time point, 25 μL aliquot of incubation mixture was transferred to 125 μL of cold acetonitrile containing internal standard, followed by centrifugation for 30 min at 3,220 g. 100 μL of supernatant was mixed with 100 μL of distilled water for analysis by LC-MS/MS. Peak areas were determined from extracted ion chromatograms and in vitro half-life (t1/2) was determined from the concentration vs time regression slope, in vitro t1/2=0.693/k. Conversion of the in vitro t1/2 (in min) into the in vitro intrinsic clearance (in vitro CLint, in μL/min/10^6 cells) is done using: in vitro CLint=kV/N.

in vivo [3] = format: in vivo, mouse; conditions: 001 (metabolite) in brain after 321 IV 2 mg/kg
Procedure: Total fifteen male mice were used in this study with n=3 mice/time point with sparse sampling study design. Animals were administered through intravenous route with solution formulation of 321 at 2 mg/kg dose.
(§1) The extraction procedure for plasma/brain samples and the spiked plasma/brain calibration standards were identical (PMSF Stabilized Plasma and Brain used for Preparation of calibration standards): A 20 μL of study sample plasma/brain or spiked plasma/brain calibration standard was added to individual pre-labeled micro-centrifuge tubes followed by 200 μL of internal standard prepared in acetonitrile (Rosuvastatin, 50 ng/mL) was added except for blank, where 200 μL of acetonitrile was added. Samples were vortexed for 5 minutes. Samples were centrifuged for 10 minutes at a speed of 4000 rpm at 4° C. Following centrifugation, 200 μL of clear supernatant was transferred in 96 well plates and analyzed using LC-MS/MS.
(§2) Brain samples were diluted (1-part of tissue: 2-part of buffer) and homogenized. The homogenate was submitted for bioanalysis and the concentrations (ng/mL) received were corrected with dilution factor (3×) and the final reported concentrations were represented in ng/g.
The plasma and brain concentration-time data of 321 and 001 were used for the pharmacokinetic analysis.
LLOQ: 321: 1.02 ng/mL for plasma and brain 001: 1.01 ng/mL for plasma and brain

in vivo [4] = format: in vivo, mouse; conditions: 001 (metabolite) in brain after 323 IV 2 mg/kg
Procedure: Total fifteen male mice were used in this study with n=3 mice/time point with sparse sampling study design. Animals were administered through intravenous route with solution formulation of 323 at 2 mg/kg dose.
as §1, with “(Rosuvastatin+Cetrizine,” for “(Rosuvastatin,”
as §2
The plasma and brain concentration-time data of 323 and 001 were used for the pharmacokinetic analysis.
LLOQ: 323: 1.02 ng/mL for plasma and brain 001: 1.01 ng/mL for plasma and brain

[5] = Pharmacokinetics of 358, single IV in male C57BL/6 mice; format: in vivo, mouse
Procedure: Total fifteen male mice were used in this study with n=3 mice/time point with sparse sampling study design. Animals were administered through intravenous route with solution formulation of 358 at 2 mg/kg dose.
The extraction procedure for plasma/brain samples and the spiked plasma/brain calibration standards were identical (PMSF Stabilized Plasma and Brain used for Preparation of calibration standards):
A 20 μL of study sample plasma/brain or spiked plasma/brain calibration standard was added to individual pre-labeled micro-centrifuge tubes followed by 200 μL of internal standard prepared in acetonitrile (Rosuvastatin+Cetrizine, 50 ng/mL) was added except for blank, where 200 μL of acetonitrile was added. Samples were vortexed for 5 minutes. Samples were centrifuged for 10 minutes at a speed of 4000 rpm at 4° C. Following centrifugation, 200 μL of clear supernatant was transferred in 96 well plates and analyzed using LC-MS/MS.
Note: Brain samples were diluted (1-part of tissue: 2-part of buffer) and homogenized. The homogenate was submitted for bioanalysis and the concentrations (ng/mL) received were corrected with dilution factor (3×) and the final reported concentrations were represented in ng/g.
The plasma and brain concentration-time data of 358 and 001 were used for the pharmacokinetic analysis.
LLOQ: 358: 1.02 ng/mL for plasma and brain 001: 1.01 ng/mL for plasma and brain

[6] = in vivo; cited from earlier work
[7] = Hydrolysis Assay - Condition 1 (SGF); format: physicochemical; conditions: SGF with pepsin pH 1.5, 37° C., 0.5 mM
Procedure: 50 μL of compound (10 mM) in DMSO was diluted into 950 μL of Simulated Gastric Fluid (SGF) with pepsin (pH 1.5) to a final concentration of 0.5 mM. The hydrolysis kinetics were conducted at 37° C. and measured by LCMS at a certain time interval.
(§3) The corresponding LCMS chromatogram were recorded and the conversions were calculated by integration of each peak.
(§4) • 1) LCMS spectra were obtained using Agilent 1200G1956A or SHIMADZU LCMS-2020. Standard LCMS conditions were as follows (running time 1.55 minutes): • Acidic condition: Mobile Phase A: 0.0375% TFA in water (v/v). Mobile Phase B: 0.01875% TFA in acetonitrile (v/v); Column: Kinetex EVO C18 30*2.1 mm, 5 μm. • Basic condition: Mobile Phase A: 0.025% NH3·H2O in water (v/v). Mobile Phase B: Acetonitrile; Column: Kinetex EVO C18 2.1×30 mm, 5 μm. • 2) Conversion (%)=peak area 1/(peak area 1+peak area 2)*100%, peak area 1 is the integration of hydrolyzed product, peak area 2 is the integration of starting material.

[8] = Hydrolysis Assay - Condition 2 (DI Water); format: physicochemical; conditions: 25° C., 0.5 mM
Procedure: 50 μL of compound (10 mM) in DMSO was diluted into 950 μL of DI water to a final concentration of 0.5 mM. The hydrolysis kinetics were conducted at 25° C. and measured by LCMS at a certain time interval.
as §3, §4

[9] = format: in vitro ADME, mouse; conditions: prodrug remaining, 5 μM, 37° C.
Procedure: (§5) Each test was carried out in duplicate for each time point; 0 min, 15 min, 30 min, 60 min, 120, 240 min. […]

[10] = format: in vitro ADME, human; conditions: prodrug remaining, 5 μM, 37° C.
Procedure: as §5

In the case of COc1ccc([C@@]23CCC(=O)C[C@@H]2N(C)CC3)cc1OC [Mesembrine, 3a-(3,4-dimethoxyphenyl)-octahydro-1-methyl-6H-indol-6-one], the stability [1] is given as “unstable”.
Compound COc1ccc([C@@]23CCC(=O)C[C@@H]2N(C)CC3)cc1OC (racemic) [Compound 001, (3aS,7aS)-3a-(3,4-dimethoxyphenyl)-1-methyl-2,3,4,5,7,7a-hexahydroindol-6-one, reference compound] has a half-life [2] of 17 min, a hepatocyte CLint [2] of 40 µL/min/1e6 cells and an AUClast (in vivo [3]) of 12.72 ng·h/g. For the same compound, the AUClast (in vivo [4]) was 411.95 ng·h/g, the AUClast ([5]; 001 (metabolite) in brain after 358 IV 2 mg/kg) was 190.88 ng·h/g and the half-life in plasma [6] was “less than 2 hours”.
In the case of COc1ccc([C@@]23CCC(OC(=O)OC(C)(C)C)=C[C@@H]2N(C)CC3)cc1OC [Compound 358, [(3aS,7aS)-3a-(3,4-dimethoxyphenyl)-1-methyl-3,4,5,7a-tetrahydro-2H-indol-6-yl] tert-butyl carbonate], the “Condition 1 Conversion (%)” value ([7]; 1 min) is reported as 0%, the “Condition 1 Conversion (%)” value ([7]; 5 min) is reported as 0% and the “Condition 1 Conversion (%)” value ([7]; 30 min) is reported as 0%. The “Condition 1 Conversion (%)” value ([7]; 1 h) was 5%, the “Condition 1 Conversion (%)” value ([7]; 4 h) was 100% and the “Condition 1 Conversion (%)” value ([7]; 24 h) was 100%. For the same compound, the “Condition 2 Conversion (%)” value ([8]; 1 min) was 0%, the “Condition 2 Conversion (%)” value ([8]; 5 min) was 0% and the “Condition 2 Conversion (%)” value ([8]; 30 min) was 0%. For the same compound, the “Condition 2 Conversion (%)” value ([8]; 1 h) was 0%, the “Condition 2 Conversion (%)” value ([8]; 4 h) was 83.46% and the “Condition 2 Conversion (%)” value ([8]; 24 h) was 100%. For the same compound, the “Mouse Plasma Prodrug (%)” value ([9]; 0 min) was 100%, the “Mouse Plasma Prodrug (%)” value ([9]; 15 min) was 14.8% and the “Mouse Plasma Prodrug (%)” value ([9]; 30 min) was 10.3%. The “Mouse Plasma Prodrug (%)” value ([9]; 60 min) was 5.4%, the “Mouse Plasma Prodrug (%)” value ([9]; 120 min) was 0.0% and the “Mouse Plasma Prodrug (%)” value ([9]; 240 min) was 0.0%. For the same compound, the “Human Plasma Prodrug (%)” value ([10]; 0 min) was 100%, the “Human Plasma Prodrug (%)” value ([10]; 15 min) was 75.4% and the “Human Plasma Prodrug (%)” value ([10]; 30 min) was 58.1%. For the same compound, the “Human Plasma Prodrug (%)” value ([10]; 60 min) was 35.5%, the “Human Plasma Prodrug (%)” value ([10]; 120 min) was 11.7% and the “Human Plasma Prodrug (%)” value ([10]; 240 min) was 0.7%. For the same compound, the “brain concentrations quantifiable up to” value ([5]; 358 after 358 IV 2 mg/kg) was ≤ 0.08 h, the concentration at 0.08 h ([5]; male, C57BL/6, mouse, brain, 358 after 358 IV 2 mg/kg, read-out: Brain concentrations (mean)) was 18.3 ng/g and the “plasma concentrations quantifiable up to” value ([5]; male, C57BL/6, mouse, in vivo, iv, 2 mg/kg) was “up to 0.25 h”. For the same compound, the concentration at 0.08 h ([5]; male, C57BL/6, mouse, plasma, 358 after 358 IV 2 mg/kg, read-out: Plasma concentrations (mean)) was 14.3 ng/mL and the concentration at 0.25 h ([5]; male, C57BL/6, mouse, plasma, 358 after 358 IV 2 mg/kg, 0.25 h, average of two values, read-out: Plasma concentrations (mean)) was 1.51 ng/mL.
